IC50 data for 26 molecules are collected here from US20230113037A1 (Bayer Aktiengesellschaft, priority 2019, published 2023).

Bounds are passed on as bounds.

The target in the experiment is T1, AHR (Mus musculus, UniProt P30561).
T1 sequence (P30561 1-848 P471L/N533S/M589L): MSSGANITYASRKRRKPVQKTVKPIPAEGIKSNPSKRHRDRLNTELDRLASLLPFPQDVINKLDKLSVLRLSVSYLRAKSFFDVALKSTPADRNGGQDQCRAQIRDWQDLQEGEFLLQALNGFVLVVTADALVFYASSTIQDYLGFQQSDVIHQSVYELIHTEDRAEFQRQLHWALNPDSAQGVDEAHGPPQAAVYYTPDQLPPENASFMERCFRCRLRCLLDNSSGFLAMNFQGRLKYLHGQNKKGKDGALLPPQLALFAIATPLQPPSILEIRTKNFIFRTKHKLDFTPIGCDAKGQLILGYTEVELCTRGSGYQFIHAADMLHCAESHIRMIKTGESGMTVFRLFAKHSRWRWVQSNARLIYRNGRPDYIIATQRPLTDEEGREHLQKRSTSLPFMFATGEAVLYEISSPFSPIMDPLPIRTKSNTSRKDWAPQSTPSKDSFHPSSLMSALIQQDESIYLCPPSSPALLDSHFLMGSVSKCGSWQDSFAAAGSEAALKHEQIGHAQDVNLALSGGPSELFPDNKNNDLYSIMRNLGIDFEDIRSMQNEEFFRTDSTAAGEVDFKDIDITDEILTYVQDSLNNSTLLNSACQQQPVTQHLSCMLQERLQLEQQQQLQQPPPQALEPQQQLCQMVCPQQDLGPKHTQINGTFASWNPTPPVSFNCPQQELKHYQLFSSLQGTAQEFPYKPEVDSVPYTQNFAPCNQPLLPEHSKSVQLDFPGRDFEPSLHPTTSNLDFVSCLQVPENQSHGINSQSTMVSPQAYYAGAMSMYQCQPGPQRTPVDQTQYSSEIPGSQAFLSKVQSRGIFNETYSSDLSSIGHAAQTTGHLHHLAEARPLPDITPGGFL
Kind of experiment: In vitro assay 3: antagonism in mouse cell line (AHR transactivation, firefly luciferase reporter, kynurenic acid prestimulated). In kind it is cell-based. Particulars: mouse Hepa 1c1c7 cells, 200 μM kynurenic acid, 20 hours, read-out: AHR Antagonism Mouse IC50. Here is the method:
Examples were tested in selected biological assays one or more times. When tested more than once, data are reported as either average values or as median values, wherein • the average value, also referred to as the arithmetic mean value, represents the sum of the values obtained divided by the number of times tested, and • the median value represents the middle number of the group of values when ranked in ascending or descending order. If the number of values in the data set is odd, the median is the middle value. If the number of values in the data set is even, the median is the arithmetic mean of the two middle values.
In addition the cells were stably transfected with an AHR inducible firefly luciferase reporter gene construct that carried AHR-binding sites (DRE) in its promoter. Kynurenic acid is an endogenous AHR activating ligand and was used to prestimulate test cells prior to testing the antagonistic properties of compounds.
As positive inhibition control cells without addition of kynurenic acid were incubated. Normalization was done by positive and negative controls.
Firefly luciferase activity was determined by the SteadyGlo Luciferase Assay System (Promega, #E2550).

As to `O=C1NCCNC[C@H]1Nc1nc2ccccc2c2nc(-c3cnn(CCO)c3)nn12` [Example 414, (6R)-5-({2-[1-(2-hydroxyethyl)-1H-pyrazol-4-yl][1,2,4]triazolo[1,5-c]quinazolin-5-yl}amino)-1,4-diazepan-5-one], the IC50 was over 20000 nM.
Take `O=C1NCC[C@H]1Nc1nc2c(Br)cccc2c2nc(-c3ccc(F)cc3)nn12` [Example 217, (3R)-3-{[7-bromo-2-(4-fluorophenyl)[1,2,4]triazolo[1,5-c]quinazolin-5-yl]amino}pyrrolidin-2-one]: the IC50 worked out at 2.54 nM.
As for `N#Cc1ccc(-c2nc3c4ccccc4nc(N[C@@H]4CCNC4=O)n3n2)cc1` [Example 388, 4-(5-{[(3R)-2-oxopyrrolidin-3-yl]amino}[1,2,4]triazolo[1,5-c]quinazolin-2-yl)benzonitrile], the IC50 came to 2890 nM.
For the molecule `O=C1NCCC[C@H]1Nc1nc2ccccc2c2nc(-c3ccccc3Br)nn12` [Example 454, (3R)-3-{[2-(2-bromophenyl)[1,2,4]triazolo[1,5-c]quinazolin-5-yl]amino}piperidin-2-one], the IC50 amounted to 165 nM.
In the case of `COc1ccc(-c2nc3c4ccccc4nc(NC4CNCCNC4=O)n3n2)cc1` (centres unmarked) [Example 34, 6-{[2-(4-methoxyphenyl)[1,2,4]triazolo[1,5-c]quinazolin-5-yl]amino}-1,4-diazepan-5-one], the IC50 is 23.8 nM.
As for `CC[C@H](Nc1nc2ccccc2c2nc(-c3ccccc3OC(F)(F)F)nn12)C(N)=O` [Example 462, (2S)-2-({2-[2-(trifluoromethoxy)phenyl][1,2,4]triazolo[1,5-c]quinazolin-5-yl}amino)butanamide], the IC50 is 81.2 nM.
Turning to `O=C1NCCCC[C@H]1Nc1nc2c(F)cccc2c2nc(-c3ccc(F)cc3)nn12` [Example 139, (3R)-3-{[7-fluoro-2-(4-fluorophenyl)[1,2,4]triazolo[1,5-c]quinazolin-5-yl]amino}azepan-2-one], the half-maximal inhibitory concentration (IC50) worked out at 0.258 nM.
The same measure for `COc1cccc(-c2nc3c4cc(C)ccc4nc(NC4CCCNC4=O)n3n2)c1` (centres unmarked) [Example 157, 3-{[2-(3-methoxyphenyl)-9-methyl[1,2,4]triazolo[1,5-c]quinazolin-5-yl]amino}piperidin-2-one]: 45.4 nM.
For `O=C1NCCCC[C@H]1Nc1nc2ccccc2c2nc(-c3cc(Cl)ccc3OC(F)(F)F)nn12` [Example 497, (3R)-3-({2-[5-chloro-2-(trifluoromethoxy)phenyl][1,2,4]triazolo[1,5-c]quinazolin-5-yl}amino)azepan-2-one], the IC50 turned out to be 57.1 nM.
Take `O=C1NCCCC[C@@H]1Nc1nc2ccccc2c2nc(-c3ccccc3Br)nn12` [Example 453, (3S)-3-{[2-(2-bromophenyl)[1,2,4]triazolo[1,5-c]quinazolin-5-yl]amino}azepan-2-one]: the IC50 turned out to be 17.5 nM.
Take `COc1ccc(-c2nc3c4ccccc4nc(N[C@@H](CCCCNC(=O)OC(C)(C)C)C(N)=O)n3n2)cc1` [Example 25, tert-butyl [(5S)-6-amino-5-{[2-(4-methoxyphenyl)[1,2,4]triazolo[1,5-c]quinazolin-5-yl]amino}-6-oxohexyl]carbamate]: the IC50 is 485 nM.
In the case of `COc1cccc(-c2nc3c4cc(C)ccc4nc(N[C@H]4CCCCNC4=O)n3n2)c1` [Example 156, (3S)-3-{[2-(3-methoxyphenyl)-9-methyl[1,2,4]triazolo[1,5-c]quinazolin-5-yl]amino}azepan-2-one] it was 14.2 nM; in that of `COc1ccc(-c2nc3c4ccccc4nc(NC4CCCNC4=O)n3n2)cc1` (single isomer, unassigned) [Example 37, 3-{[2-(4-methoxyphenyl)[1,2,4]triazolo[1,5-c]quinazolin-5-yl]amino}piperidin-2-one], 238 nM; in that of `COc1ccc(-c2nc3c4c(Br)cccc4nc(N[C@@H]4CNCCNC4=O)n3n2)cc1` (stereo in doubt) [Example 281, 6-{[10-bromo-2-(4-methoxyphenyl)[1,2,4]triazolo[1,5-c]quinazolin-5-yl]amino}-1,4-diazepan-5-one], 23.6 nM.
In the case of `Cc1ccc(-c2nc3c4ccccc4nc(N[C@@H]4CCCCNC4=O)n3n2)cc1` [Example 56, (3R)-3-{[2-(4-methylphenyl)[1,2,4]triazolo[1,5-c]quinazolin-5-yl]amino}azepan-2-one] it was 0.18 nM.
`COc1ccc(-c2nc3c4ccccc4nc(N[C@@H]4CN(C)CCNC4=O)n3n2)cc1` [Example 656, (6R)-6-{[2-(4-methoxyphenyl)[1,2,4]triazolo[1,5-c]quinazolin-5-yl]amino}-1-methyl-1,4-diazepan-5-one]: the IC50 came to 30.1 nM.
For the molecule `CN1CC[C@@H](Nc2nc3ccccc3c3nc(-c4ccc(OC(F)(F)F)cc4)nn23)C1=O` [Example 328, (3R)-1-methyl-3-({2-[4-(trifluoromethoxy)phenyl][1,2,4]triazolo[1,5-c]quinazolin-5-yl}amino)pyrrolidin-2-one], the IC50 stood at 19.3 nM.
In the case of `Cn1cc(-c2nc3c4ccccc4nc(N[C@H](CO)C(N)=O)n3n2)cn1` [Example 16, N^2-[2-(1-methyl-1H-pyrazol-4-yl)[1,2,4]triazolo[1,5-c]quinazolin-5-yl]-D-serinamide] it was over 20000 nM; in that of `COc1ccc(-c2nc3c4c(Cl)cccc4nc(NC4CNCCNC4=O)n3n2)cc1` (centres unmarked) [Example 292, 6-{[10-chloro-2-(4-methoxyphenyl)[1,2,4]triazolo[1,5-c]quinazolin-5-yl]amino}-1,4-diazepan-5-one], 40.3 nM; in that of `O=C1NCCCC[C@H]1Nc1nc2cccc(Br)c2c2nc(-c3ccc(F)cc3)nn12` [Example 166, (3R)-3-{[10-bromo-2-(4-fluorophenyl)[1,2,4]triazolo[1,5-c]quinazolin-5-yl]amino}azepan-2-one], 2.57 nM.
Turning to `O=C1NCCCC[C@H]1Nc1nc2ccccc2c2nc(-c3ccc(F)nc3)nn12` [Example 639, (3R)-3-{[2-(6-fluoropyridin-3-yl)[1,2,4]triazolo[1,5-c]quinazolin-5-yl]amino}azepan-2-one], the IC50 stood at 0.927 nM.
In the case of `O=C1NCCCC[C@@H]1Nc1nc2ccccc2c2nc(-c3ccccc3)nn12` [Example 1, (3S)-3-[(2-phenyl[1,2,4]triazolo[1,5-c]quinazolin-5-yl)amino]azepan-2-one], the IC50 turned out to be 4.88 nM.
Regarding `COc1ccc(-c2nc3c4cccc(Br)c4nc(N[C@@H]4CCCCNC4=O)n3n2)cc1` [Example 215, (3R)-3-{[7-bromo-2-(4-methoxyphenyl)[1,2,4]triazolo[1,5-c]quinazolin-5-yl]amino}azepan-2-one], the IC50 came out at 1.23 nM.
For the molecule `Cn1cc(-c2nc3c4cccc(Br)c4nc(N[C@@H]4CNCCNC4=O)n3n2)cn1` [Example 267, (6R)-6-{[7-bromo-2-(1-methyl-1H-pyrazol-4-yl)[1,2,4]triazolo[1,5-c]quinazolin-5-yl]amino}-1,4-diazepan-5-one], the IC50 came out at 24.7 nM.
`O=C1NCCCC1Nc1nc2ccccc2c2nc(-c3ccc(F)cc3)nn12` (centres unmarked) [Example 72, 3-{[2-(4-fluorophenyl)[1,2,4]triazolo[1,5-c]quinazolin-5-yl]amino}piperidin-2-one]: the IC50 was 10 nM.
Consider `CC[C@@H](Nc1nc2ccccc2c2nc(-c3cccc(OC)c3)nn12)C(=O)O` [Example 95, (2R)-2-{[2-(3-methoxyphenyl)[1,2,4]triazolo[1,5-c]quinazolin-5-yl]amino}butanoic acid], for which the IC50 stood at 399 nM.
